Data on 4 compounds can be found in patent US9023889B2, “Use of ascorbic acid derivatives for the functionalization of matrices” (Merck Patent GmbH, priority 2006, dated 2015).

One assay deals with prolyl-4-hydroxylase. Conditions: cited from earlier work.
In a further assay the test system is chicken skin. Nature of the assay: Evidence of bonding to chicken skin. Conditions: 2% in dimethylisosorbide, 2.66 μl/cm^2, exposure 16 hours, isopropanol extraction, photometric at 354 nm. How it is done:
A) DHAB is dissolved to the extent of 2% in dimethylisosorbide. The solution is applied to chicken skin at an application rate of 2.66 μl/cm^2. After an exposure time of 16 hours, the samples are extracted with isopropanol in an ultrasound bath. The extracts are measured photometrically at 354 nm and compared with a 100% value (=application solution without use). The difference in the recovery compared with the 100% value corresponds here to the proportion of active compound bonded to the skin. For DHAB, a bound proportion of 76% is found, while the non-bonding comparative substance DHHB has, as expected, a low value of only 3%.

Another assay concerns pig skin. Nature of the assay: Evidence of bonding to pig skin. The conditions noted are these: pig skin 24 h. How it is done: • 2% solution of DHAB in Arlasolve DMI sample (A) and Pelemol BIP sample (B) • formulation containing 1% of DHAB sample (C) [=54-07-5-A, from Example V] • 2% solution of DHHB in Arlasolve DMI sample (D) and isopropyl myristate sample (E) formulations containing 0.84% of DHHB sample (F) [=54-07-5-B from Example V] and 0.84% of DHHB+0.37% of vitamin C sample (G) [=54-07-5-C from Example V]. • pig skin is cut to 2.5×7.5 cm and placed on Plexiglas specimen slides. Procedure:
50 µl of each of samples (A) to (G) are dripped onto the specimen slides with pig skin, spread using a plastic spatula, and the specimen slides are stored in a desiccator [87% atmospheric humidity through sat. KCl solution] at room temperature for 24 h. The specimen slides are then rinsed with 50 ml of isopropanol into volumetric flasks, treated in an ultrasound bath for 5 min, clear-filtered via syringe filters (cloudiness due to detached skin constituents and measured by UV spectrometer (400-250 nm; UVmax˜355 nm) (residue 1 to 7). The 100% comparative value used are 50 ml isopropanol solutions of in each case 50 µl of samples (A) to (G), which are likewise measured by UV spectrometer.

The next assay has as its system gelatine plates. Nature of the assay: Evidence of bonding (skin model), gelatine plates. The conditions noted are these: 24 hrs at 87% atmospheric humidity, eluted with iPrOH in ultrasound bath. The method, then:
4% solutions of a mixture of two isomers of 2-(3,4-dihydroxy-5-oxo-2,5-di-hydrofuran-2-yl)-2-hydroxyethyl 2-(4-diethylamino-2-hydroxybenzoyl)benzo-ate, prepared in accordance with Example 1 or 2, abbreviated to DHAB below, in various solvent systems are prepared. 40 µl of each of these are applied to 2.5×7.5 cm gelatine plates and stored at 87% atmospheric humidity for 24 hrs. The plates are then eluted with 50 ml of iPrOH in an ultrasound bath for 5 min. The bonding to the gelatine is carried out by comparison with a corresponding standard solution: […]

Another assay concerns Human hair samples. Nature of the assay: Evidence of bonding to hair (SEM). The conditions noted are these: 0.2% solution in ethanol/water=80/20, 8 h, rinsed; comparison with DHHB. The method, then: Human hair samples are stirred with a 0.2% ethanolic active-compound solution of DHAB or DHHB (ethanol/water=80/20) for 8 h, subsequently rinsed with ethanol/water=80/20 and sent for SEM measurement (SEM=scanning electron microscope).

For the compound `CC(=O)Oc1ccccc1C(=O)OC[C@H](OC(=O)c1ccccc1OC(C)=O)[C@H]1OC(=O)C(O)=C1O` [O^5O^6-bis(2-acetoxybenzoyl) L-ascorbate], in the assay on prolyl-4-hydroxylase, the “supporting the activity of the enzyme prolyl-4-hydroxylase” value is “capable of supporting the activity”. Further, in the assay on prolyl-4-hydroxylase (compared with the monosubstituted compound), the “affinity to the enzyme” value is recorded as “lower affinity”.
As to `CCCCCCOC(=O)c1ccccc1C(=O)c1ccc(N(CC)CC)cc1O` [DHHB, hexyl 2-(4-diethylamino-2-hydroxybenzoyl)benzoate], in the assay on chicken skin, the “bound proportion (proportion of active compound bonded to the skin)” value came to 3%. Further, the results for the “Bonding (non-extractable residue)” value in the assay on pig skin (0.84% in W/O 54-07-5-B), with pig skin (2% in Arlasolve DMI) and with pig skin (2% in isopropyl myristate) were 5%, 0% and 2%, respectively.
For `CC(=O)Oc1ccccc1C(=O)OC[C@H](O)[C@H]1OC(=O)C(O)=C1O` [O^6-(2-acetoxybenzoyl) L-ascorbate], the “supporting the activity of the enzyme prolyl-4-hydroxylase” value with prolyl-4-hydroxylase was “capable of supporting the activity”.
`CCN(CC)c1ccc(C(=O)c2ccccc2C(=O)OC[C@@H](O)[C@H]2OC(=O)C(O)=C2O)c(O)c1` [DHAB, (R)-2-((R)-3,4-dihydroxy-5-oxo-2,5-dihydrofuran-2-yl)-2-hydroxyethyl 2-(4-diethylamino-2-hydroxybenzoyl)benzoate]: the “Non-extractable content and therefore bonded to the skin” value with gelatine plates (4% solution in EG/water 94/6 on gelatine plate) was determined as 97.0%; in the assay on gelatine plates (4% solution in i-PrOH on gelatine plate) it was 12.5%. Moreover, the “bound proportion (proportion of active compound bonded to the skin)” value in the assay with chicken skin is reported as 76%. In addition, the results for the “Bonding (non-extractable residue)” value in the assay on pig skin (1% in W/O 54-07-5-A), in the assay with pig skin (2% in Arlasolve DMI) and with pig skin (2% in Pelemol BIP) were 91%, 97% and 89%, respectively. In addition, in the assay on Human hair samples, the “active-compound adduction onto the hair cuticles (SEM picture)” value is recorded as “clearly increasingly evident”.
